Columns and labels:
Experiment in all cases: relative viability (nuclei count vs DMSO), 5 days (fraction); higher = more cells survive
[1] = compound: O=C(O)C(Cc1ccccc1[N+](=O)[O-])=NNc1nc(-c2ccc(Cl)c(Cl)c2)cs1 (mixture of isomers) [4EGI-1] + CS(=O)(=O)CCNCc1ccc(-c2ccc3ncnc(Nc4ccc(OCc5cccc(F)c5)c(Cl)c4)c3c2)o1 [Lapatinib] (partner 2 µM)
In short: (§1)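 Dosing by pin tool came one day after lung cancer cell lines were seeded in 1536-well plates, using either one drug or a fixed anchor-drug dose plus five library-drug doses (not always all listed) in √10 steps. After 5 days, nuclei were counted on 4× images. Relative viability is treated-well nuclei count divided by vehicle-well nuclei count, and values are medians of duplicate plates.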

[2] = compound: CN1CCN(CC1)C2=CC(=C(C=C2)NC3=NC=C4C(=N3)N(C5=CC=CC=C5C(=O)N4C)C)OC [XMD8-85] + N=C(N)NC(=N)NCCc1ccccc1 [Phenformin] (partner 250 µM)
In short: as §1

[3] = compound: O=C(O)C(Cc1ccccc1[N+](=O)[O-])=NNc1nc(-c2ccc(Cl)c(Cl)c2)cs1 (mixture of isomers) [4EGI-1] + CC(C)C[C@H](NC(=O)[C@H](Cc1ccccc1)NC(=O)c1cnccn1)B(O)O [Bortezomib] (partner 0.002 µM)
In short: as §1

[4] = compound: CN1CCN(CC1)C2=CC(=C(C=C2)NC3=NC=C4C(=N3)N(C5=CC=CC=C5C(=O)N4C)C)OC [XMD8-85] + Cc1cc(Nc2cc(N3CCN(C)CC3)nc(Sc3ccc(NC(=O)C4CC4)cc3)n2)n[nH]1 [Tozasertib] (partner 0.1 µM)
In short: as §1

Cell Line | relative viability ([1]; first compound 0.5 µM) | relative viability ([1]; first compound 1.581 µM) | relative viability ([1]; first compound 5 µM) | relative viability ([1]; first compound 15.81 µM) | relative viability ([1]; first compound 50 µM) | relative viability ([2]; first compound 0.08 µM) | relative viability ([2]; first compound 0.253 µM) | relative viability ([2]; first compound 0.8 µM) | relative viability ([2]; first compound 2.53 µM) | relative viability ([2]; first compound 8 µM) | relative viability ([3]; first compound 0.5 µM) | relative viability ([3]; first compound 1.581 µM) | relative viability ([3]; first compound 5 µM) | relative viability ([3]; first compound 15.81 µM) | relative viability ([3]; first compound 50 µM) | relative viability ([4]; first compound 0.08 µM) | relative viability ([4]; first compound 0.253 µM) | relative viability ([4]; first compound 0.8 µM) | relative viability ([4]; first compound 2.53 µM) | relative viability ([4]; first compound 8 µM)
NCI-H520 | 0.98 | 0.882 | 0.963 | 0.738 | 0.144 | 0.574 | 0.6 | 0.557 | 0.543 | 0.446 | 0.838 | 0.521 | 0.999 | 0.536 | 0.108 | 0.388 | 0.414 | 0.44 | 0.406 | 0.341
NCI-H1650 | 0.953 |  | 0.825 | 0.374 | 0.256 | 0.411 | 0.449 | 0.401 | 0.36 | 0.178 | 0.197 |  | 0.219 | 0.216 | 0.189 | 0.358 | 0.409 | 0.413 | 0.216 | 0.177
RERF-LC-KJ | 0.93 | 0.677 | 0.808 | 0.64 | 0.644 | 0.46 | 0.445 | 0.406 | 0.379 | 0.326 | 1.09 |  | 1.07 | 0.847 | 0.931 | 0.552 | 0.465 | 0.473 | 0.409 | 0.295
LOU-NH91 | 0.807 |  | 0.822 | 0.787 | 0.552 | 0.661 | 0.774 |  | 0.835 | 0.523 | 0.501 |  | 0.531 | 0.384 | 0.426 | 0.644 | 0.631 | 0.636 | 0.669 | 0.419
HCC-15 | 0.949 | 0.914 | 0.871 | 0.8 | 0.423 | 0.465 | 0.415 | 0.451 | 0.468 | 0.265 | 1.09 | 1.12 | 1.06 | 0.951 | 0.801 | 0.394 | 0.294 | 0.398 | 0.167 | 0.143
NCI-H23 | 1.24 |  | 1.09 | 1.13 | 0.43 | 0.797 | 0.791 | 0.806 | 0.694 | 0.774 | 1.16 |  | 1.18 | 1.03 | 0.656 | 0.492 | 0.369 | 0.34 | 0.272 | 0.209
HCC-78 | 0.842 | 0.551 | 0.752 | 0.788 | 0.947 | 0.705 | 0.84 | 0.695 | 0.665 | 0.46 | 0.618 | 0.466 | 0.513 | 0.432 | 0.399 | 0.407 | 0.465 | 0.397 | 0.434 | 0.296
LC-2-ad | 0.988 | 0.89 | 0.942 | 0.228 | 0.175 | 0.592 | 0.55 | 0.611 | 0.595 |  | 1.17 | 0.877 | 0.944 | 0.444 | 0.352 | 0.411 | 0.429 | 0.47 | 0.33 | 0.34
HCC-44 | 0.985 | 0.802 | 0.929 | 0.809 | 0.366 | 0.241 | 0.267 | 0.184 | 0.205 | 0.108 | 0.924 | 0.637 | 0.877 | 0.753 | 0.235 | 0.802 | 0.898 | 1.15 | 0.51 | 0.356
HCC-366 | 1.03 | 0.632 | 1.02 | 1.03 | 0.134 | 0.598 | 0.611 | 0.617 | 0.63 | 0.649 | 1.12 | 0.841 | 1.04 | 1.09 | 0.19 | 0.138 | 0.128 | 0.0974 | 0.0608 | 0.0744
PC-14 | 0.355 | 0.353 | 0.371 |  | 0.296 | 0.524 | 0.66 | 0.575 | 0.611 | 0.193 | 1.06 |  | 0.839 |  | 0.859 | 0.556 | 0.529 | 0.541 | 0.463 | 0.397
NCI-H647 | 1.03 | 0.989 | 1.08 | 0.505 | 0.124 | 0.258 | 0.522 | 0.528 | 0.465 | 0.307 | 1.08 | 1.08 | 1.13 | 0.533 | 0.748 | 0.173 | 0.195 | 0.29 | 0.202 | 0.0891
201T | 1.04 | 0.986 | 1.04 | 1.02 | 0.659 | 0.437 | 0.467 | 0.444 | 0.469 | 0.447 | 1.15 | 1.05 | 1.08 | 1.09 | 1.03 | 0.964 | 0.975 |  | 0.808 | 0.771
PC-3 [JPC-3] | 0.518 | 0.416 | 0.443 |  | 0.39 | 0.431 | 0.446 | 0.467 | 0.537 | 0.514 | 0.787 | 0.81 | 0.812 |  | 0.645 | 0.723 | 0.848 | 0.974 | 1 | 0.625
HCC-827 | 0.197 | 0.201 | 0.15 |  | 0.168 | 0.389 |  |  | 0.49 | 0.45 | 0.991 | 0.853 | 1.02 | 0.267 | 0.519 |  | 0.437 | 0.642 | 0.387 | 0.365
EPLC-272H | 1.03 | 0.501 | 0.909 | 0.624 | 0.39 | 0.281 | 0.272 | 0.318 | 0.358 | 0.272 | 1.01 | 0.686 | 0.898 | 0.618 | 0.497 | 0.294 | 0.241 | 0.557 | 0.281 | 0.25
NCI-H2087 | 1.11 | 0.934 | 1.07 | 0.911 | 0.222 | 0.495 | 0.441 | 0.562 | 0.396 | 0.389 | 1.04 | 0.782 | 0.882 | 0.726 | 0.335 | 0.265 | 0.223 | 0.238 | 0.245 | 0.177
